Entries after “also recorded” stand apart in the source; their conditions may differ.
Key:
histone H4 [1] = target: T1, histone H4 (Homo sapiens, UniProt P62805); assay: histone H4 acetylation in Na-butyrate treated MCF-7 cells (immunoblot); format: cell-based; conditions: absence of lunasin
T1 construct: endogenous in cells; host or cells: MCF-7
Source text: (§1) Deacetylated histones are substrates for histone acetylation and for chromatin remodelling which has been associated with eukaryotic transcriptional regulatory mechanisms (K Struhl, Genes Dev., vol. 12, 599,1998; M. Grunstein, Nature, vol. 389,349, 1997).

histone H3 [2] = assay: histone H3 acetylation in Na-butyrate treated MCF-7 cells (immunoblot); format: cell-based, human
Source text: as §1

histone H3 [3] = assay: histone H3 acetylation in Na-butyrate treated C3H cells (immunoblot); format: cell-based, murine
Source text: as §1

histone H4 [4] = target: T2, histone H4 (Mus musculus, UniProt P62806); assay: histone H4 acetylation in Na-butyrate treated C3H cells (immunoblot); format: cell-based, murine; conditions: absence of lunasin
T2 construct: endogenous in cells; host or cells: C3H 10T1/2 mouse embryo fibroblasts
Source text: as §1

[5] = target: deacetylated H4 N-terminal tail peptide; assay: in vitro immuno-binding assay, increasing dose of deacetylated H4 peptide (FIG. 10)
[6] = target: histone H3 in MCF-7 cells (human)
[7] = target: T3, deacetylated H4 N-terminal tail (Homo sapiens, UniProt P62805); assay: in vitro immuno-binding assay, deacetylated H4; conditions: for binding to deacetylated H4 N-terminus: FIG. 9
T3 construct: using acetylated and deacetylated forms of the H4 N-terminal tail

[8] = test system: mice embryo fibroblast cells (C3H 10T½); assay: cell adhesion assay with synthetic lunasin peptides; format: cell-based; conditions: C3H 10T½ cells, FIG. 2
Source text: (§2) Lunasin contains the cell adhesion motif RGD (arg-gly-asp). […] However, at this stage of mitosis, kinetochore assembly and spindle fiber attachment to centromeres had already transpired.

tetra-acetylated H4 = target: T4, tetra-acetylated H4 (Homo sapiens, UniProt P62805); assay: in vitro immuno-binding assay, tetra-acetylated H4; conditions: FIG. 9
T4 construct: using acetylated and deacetylated forms of the H4 N-terminal tail

C3H cells = assay: lunasin treatment followed by E1A oncogene transfection (apoptosis); format: cell-based, murine; conditions: 20 h after transfection
Source text: As a negative control, E1A with deleted conserved region 1 (E1AΔCR1) that abolishes the RB binding domain was likewise used in the transfection experiments (D. Trouche, T. Kouzidares, Proc. Natl. Acad. Sci., USA, vol. 93, 1439 (1996)).

[9] = test system: murine embryo fibroblast cells; assay: exogenous application of lunasin to growth media, immunostaining; format: cell-based
Source text: as §2

C3H 10 T½ cells = assay: cell transformation assay (carcinogen-induced foci formation); format: cell-based, murine; conditions: FIG. 6, FIG. 12
[10] = treated with lunasin for 24 h, then E1Awt

CCCC(=O)[O-].[Na+] [Na-butyrate, reference compound]
increase of histone H4 acetylation (histone H4 [1]): 200 fold | increase of H3 acetylation (histone H3 [2]; MCF-7 cells, Na-butyrate treatment): around 400 fold | increase of H3 acetylation (histone H3 [3]; C3H cells, Na-butyrate treatment): 100 fold | increase of histone H4 acetylation (histone H4 [4]): 200 fold

Lunasin peptide
binding against trLunasin-del [5]: 3 x | acetylated H3 on immunoblots of acid-extracted proteins, Na-butyrate treated MCF-7 cells [6]: 4 fold

Lunasin-GRG: lunasin with deleted RGD motif (SKWQHQQDSCRKQLQGVNLTPCEKHIMEKIQGDDDDDDDD)
binding to deacetylated H4 N-terminus [7]: high affinity | cell adhesion to C3H cells [8]: prevented cell adhesion | binding to tetra-acetylated H4 (tetra-acetylated H4): not to the tetra-acetylated H4

NLS-trLunasin: truncated lunasin peptide with the helix substituted by a nuclear localization sequence (NLS) (LEEKQKKKMEKEQGRGDDDDDDDDD; Glycine max; NLS-trLunasin)
binding to deacetylated H4 N-terminus [7]: loss of binding to deacetylated H4

Ser-Lys-Trp-Gln-His-Gln-Gln-Asp-Ser-Cys-Arg-Lys-Gln-Leu-Gln-Gly-Val-Asn-Leu-Thr-Pro-Cys-Glu-Lys-His-Ile-Met-Glu-Lys-Ile-Gln-Gly-Arg-Gly-Asp -Asp-Asp-Asp-Asp-Asp-Asp-Asp-Asp [Lunasin]
cell state after E1A-ΔCR1 transfection (C3H cells; presence of lunasin): normally dividing cells | Annexin V staining of non-adherent cells (apoptosis) (C3H cells; [10]): positive fluorescent staining for Annexin V-HITC | cell state after E1Awt transfection (C3H cells; [10]): preponderance of non-adherent cells | reduction of H3 acetylation (histone H3 [2]; MCF-7 cells, lunasin added prior to Na-butyrate treatment): 4 fold | acetylated H3 on immunoblots of acid-extracted proteins (histone H3 [2]; Na-butyrate treated MCF-7 cells pretreated with 1 μM lunasin, FIG. 13): significant reduction | Na-butyrate-induced increase in H3 acetylation upon addition of lunasin (histone H3 [3]; C3H cells): no observed increase | acetylated H3 on immunoblots of acid-extracted proteins (histone H3 [3]; Na-butyrate treated C3H cells pretreated with 1 μM lunasin, FIG. 13): significant reduction | internalization into cells ([9]; applied exogenously to the growth media, FIG. 3): became internalized | chromosomal binding site of internalized peptide ([9]; applied exogenously, metaphase): preferentially binding to the telomeres of chromosomes during metaphase | effect on cell division and proliferation ([9]; exogenous application): did not affect cell division and proliferation | effect on kinetochore assembly ([9]; internalized lunasin): did not affect kinetochore assembly | cell adhesion to C3H cells [8]: adhered to C3H cells in a dose-dependent manner

trLunasin-del: 10 amino acid peptide fragment spanning a helical domain upstream of the poly-aspartyl carboxyl end of lunasin (EKHIMEKIQG; Glycine max; trLunasin-del)
binding affinity to deacetylated H4 relative to NLS-trLunasin ([7]; FIG. 10): significantly higher affinity

trLunasin: truncated lunasin that contains only the reactive carboxyl end of the peptide (EKHIMEKIQGRGDDDDDDDDD; Glycine max; trLunasin)
anti-transformation property / efficacy in preventing foci transformation (C3H 10 T½ cells): reduced efficacy | binding affinity to deacetylated H4 relative to trLunasin-del [7]: not significantly different | binding to deacetylated H4 N-terminus [7]: significant reduction in deacetylated H4 binding; also recorded: lower binding affinity
